Experimental data reported in patent publication US20240043390A1, “COMPOSITIONS AND METHODS FOR TREATING CANCER” (The Regents of the University of California, priority 2017, published 2024).
Read-outs that look alike come from different tables or passages of the source.

Columns and labels:
HK301 cells = experiment: Annexin V apoptosis assay; type: cell-based, human; settings: HK301 gliomaspheres, 72 hours, nutlin 2.5 μM
Experimental: (§1) Cells were collected and analyzed for Annexin V and PI staining according to manufacturer's protocol (BD Biosciences). Briefly, cells were plated at 5×10^4 cells/ml and treated with appropriate drugs. Following indicated time points, cells were collected, trypsinized, washed with PBS, and stained with Annexin V and PI for 15 minutes. Samples were then analyzed using the BD LSRII flow cytometer.
(§2) Annexin V staining was measured following 72 hrs of treatment. Using the Chalice software, the response of the combination was compared to its single agents. The combinatorial effects were calculated using the synergy score.

[1] = test system: patient-derived GBM gliomaspheres; experiment: Annexin V apoptosis assay; type: cell-based, human; settings: for lethality in combination with nutlin: EGFRi non-responder cells (HK393, HK254)
Experimental: as §1, §2

[2] = Protein binding (fraction unbound) in blood and brain; type: in vitro ADME
Description: (§3) Fu refers to “fraction unbound”.

Kpuu = type: in vivo; settings: average; for Kp uu: brain/blood
Description: as §3

gliomas = settings: cited from earlier work
[3] = test system: HK393 intracranial xenografts; experiment: 18F-FDG PET/CT imaging of intracranial xenografts; type: in vivo, NSG mice; settings: acute EGFRi (erlotinib 75 mg/kg)
Experimental: (§4) Drugs were administered through oral gavage.
(§5) Following 1 hr unconscious uptake, mice were taken off anesthesia but kept warm for another 5 hr of uptake. 6 hr after the initial administration of ^18F-FDG, mice were imaged using G8 PET/CT scanner (Sofie Biosciences). Per above, quantification was performed by drawing 3D regions of interest (ROI) using the AMIDE software.

[4] = test system: GBM39 intracranial xenografts; experiment: 18F-FDG PET/CT imaging of intracranial xenografts; type: in vivo, NSG mice; settings: erlotinib 75 mg/kg, 15 hours post administration
Experimental: as §4, §5

GBM39 = experiment: GI50 assay, Cell Titer Glo, 3 days; type: cell-based, human; settings: GBM39, FIG. 2
[5] = Pharmacokinetic studies, plasma and brain; type: in vivo, male CD-1 mice; settings: oral; JGK005 10 mg/kg, erlotinib 25 mg/kg; FIG. 1
Experimental: Pharmacokinetic studies were performed on male CD-1 mice aged 8-10 weeks. Mice were dosed as indicated in duplicates. At the time points, whole blood was obtained by retro-orbital bleeding and brain tissue was harvested. Blood samples were centrifuged to obtain plasma and brain tissue was washed and homogenized. Samples were extracted with acetonitrile and supernatant was dried using a speed-vac. Dried samples were solubilized in 50:50:0.1 acetonitrile:water:formic acid and quantified on an Agilent 6400 series Triple Quadrupole LC/MS.

HK301 = experiment: GI50 assay, Cell Titer Glo, 3 days; type: cell-based, human; settings: HK301, FIG. 2
Experimental: The GI50 Assays were performed using patient-derived glioblastoma cells. […] Cells were incubated for 3 days and then proliferation was assessed by Cell Titer Glo (Promega #G7570).

HK393 and HK254 cells = experiment: 18F-FDG uptake assay in cells; type: cell-based, human; settings: 4 hours, pictilisib 1 μM
Experimental: Cells were plated at 5×10^4 cells/ml and treated with designated drugs for indicated time points. Following appropriate treatment, cells were collected and resuspended in glucose-free DMEM/F12 (USBiological) containing ^18F-FDG (radioactivity 1 μCi/mL). Cells were incubated at 37° C. for 1 hr and then washed three times with ice cold PBS. Radioactivity of each sample was then measured using a gamma counter.

O=CC[C@@H](O)[C@H](O)[C@H](O)CO [2DG, 2-deoxyglucose]
synergy with nutlin (HK301 cells): synergy with nutlin
lethality in combination with nutlin [1]: synergistic lethality

COc1cc2ncnc(Nc3cccc(Cl)c3F)c2cc1OC(=O)N1CCN(C)C[C@H]1C [AZD3759]
Bound (blood) [2]: 94.07%
Bound (brain) [2]: 97.23%
fraction unbound [2]: 0.0277
fraction unbound ([2]; blood): 0.0593
Kpuu (Avg) (Kpuu): 1.30

C#Cc1cccc(Nc2ncnc3cc(OCCOC)c(OCCOC)cc23)c1 [Erlotinib]
response rates (gliomas): ≤ 25%
18F-FDG uptake (PET) [3]: no changes in ^18F-FDG uptake
18F-FDG uptake (PET) [4]: rapidly reduced ^18F-FDG uptake
Kp uu (Kpuu): 0.0513
apoptosis (annexin V staining) ([1]; non-responders, 72 hours of erlotinib exposure, 1 μM): −3%

C#Cc1cccc(Nc2ncnc3cc4c(cc23)OCCO4)c1 [JGK005]
activity against EGFR mutant glioblastoma (GBM39): lower activity than erlotinib
CNS penetration [5]: good CNS penetration compared to erlotinib
activity against EGFR mutant glioblastoma (HK301): lower activity than erlotinib

Fc1c(Cl)cccc1Nc1ncnc2cc3c(cc12)OCCO3 [JGK010]
Bound (blood) ([2]; blood (first line of each compound)): 99.48%
fraction unbound ([2]; blood (first line of each compound), read-out: Fu (blood)): 0.0052
Bound (brain) ([2]; brain (second line of each compound)): 99.44%
fraction unbound ([2]; brain (second line of each compound), read-out: Fu (brain)): 0.0056
Kp uu (Kpuu): 1.15

Fc1c(Br)cccc1Nc1ncnc2cc3c(cc12)OCCO3 [JGK037, N-(3-Bromo-2-fluorophenyl)-7,8-dihydro[1,4]dioxino[2,3-g]quinazolin-4-amine]
Kpuu (Avg) (Kpuu): 1.2994

CC[C@H]1/C=C/C=C/C[C@@H](C)[C@H](O)[C@@](C)(O)C(=O)[C@@H](C)[C@H](O)[C@@H](C)C(=O)[C@@H](C)[C@H](O)[C@@H](C)/C=C/C(=O)O[C@@H]2[C@H](C)[C@H](CC1)O[C@]1(CC[C@H](C)[C@H](C[C@@H](C)O)O1)[C@H]2C [oligomycin]
synergy with nutlin (HK301 cells): did not synergize with nutlin treatment

CS(=O)(=O)N1CCN(Cc2cc3nc(-c4cccc5[nH]ncc45)nc(N4CCOCC4)c3s2)CC1 [pictilisib]
18F-FDG uptake (HK393 and HK254 cells): significantly reduced ^18F-FDG uptake
lethality in combination with nutlin [1]: synergistic lethality

C=C(C)[C@H]1Cc2c(ccc3c2O[C@@H]2COc4cc(OC)c(OC)cc4[C@@H]2C3=O)O1 [rotenone]
synergy with nutlin (HK301 cells): did not synergize with nutlin treatment
